Measured values as given in ChEMBL document CHEMBL1143751, “Isosteric probes provide structural requirements essential for detoxification of the phytoalexin brassinin by the fungal pathogen Leptosphaeria maculans” (2007).
Active and inactive are the calls of the source. No cut-off for these calls is given here.

What was measured:
[1] = tested on: Plenodomus lingam; assay: Specific activity of Leptosphaeria maculans brassinin oxidase
[2] = tested on: Plenodomus lingam; assay: Antifungal activity against Leptosphaeria maculans BJ 125 at 0.10 mM; format: functional
[3] = tested on: Plenodomus lingam; assay: Antifungal activity against Leptosphaeria maculans BJ 125 at 0.50 mM; format: functional
[4] = tested on: Plenodomus lingam; assay: Antifungal activity against Leptosphaeria maculans BJ 125 at 0.20 mM; format: functional

| Structure (SMILES) | Activity [1] | inhibition at 100 µM [2] [%] | inhibition at 500 µM [3] [%] | inhibition at 200 µM [4] [%] | Activity [2] |
| --- | --- | --- | --- | --- | --- |
| CSC(=S)NCCc1c[nH]c2ccccc12 | inactive |  |  |  |  |
| CNC(=O)CCc1c[nH]c2ccccc12 | inactive |  |  |  |  |
| CNC(=S)NCc1c[nH]c2ccccc12 | 2560 mU/mg |  |  |  |  |
| COC(=O)CCc1c[nH]c2ccccc12 | inactive |  |  |  |  |
| CSC(=S)NCc1cn(C)c2ccccc12 | 944 mU/mg |  |  |  |  |
| CC(=O)NCc1c[nH]c2ccccc12 | inactive |  |  |  |  |
| CCSC(=S)NCc1c[nH]c2ccccc12 | 434 mU/mg | 28 | 100 | 76 |  |
| CCCSC(=S)NCc1c[nH]c2ccccc12 | inactive | 78 | 100 | 100 |  |
| CSC(=S)NCc1c[nH]c2ccccc12 [BRASSININ] | 835 mU/mg |  | 100 | 45 | inactive |
| COC(=O)N(C)Cc1c[nH]c2ccccc12 | inactive |  |  |  |  |
| CSC(=S)N(C)Cc1c[nH]c2ccccc12 | inactive | 74 | 100 | 100 |  |
| CNC(=O)NCc1c[nH]c2ccccc12 | 3280 mU/mg |  |  |  |  |
| CSC(=O)NCc1c[nH]c2ccccc12 | 2150 mU/mg |  |  |  |  |
| CSC(=S)OCCc1c[nH]c2ccccc12 | inactive |  |  |  |  |
| COC(=O)NCc1c[nH]c2ccccc12 | 4060 mU/mg |  |  |  |  |
